Measurements: US6899723B2, “Transcutaneous photodynamic treatment of targeted cells” (Light Sciences Corporation, priority 2001, dated 2005)
Where “and” joins values, the source holds several entries; their conditions need not be identical. Equal entries are not always repeated.

What was measured:
virus-infected T cells = conditions: Blood Cells 18:129-40 (1992); cited from earlier work
normal skin tissue = conditions: systemically administered, clinical use; cited from earlier work
[1] = cited from earlier work
epithelial cancer cells = assay: Low fluence PDT of nude mice injected with epithelial cancer cells preincubated with photosensitizer; assay type: in vivo; conditions: for tumor growth: 660 nm light about 48 hours, 30 microwatts per cm^2, after 1.5 months
Method: (§1) A series of experiments were performed using nude mice growing transplanted human tumors. The mice are injected with various photosensitizers and the tumors illuminated with low fluence of only […] of light over a 72 hour time period. Extended tumor necrosis was observed.
(§2) Another two mice with established tumors were injected with 50-100 micrograms of Pheophorbide A into the lesion and exposed to 660 nm light (30 microwatts per cm^2) for 72 hours.
(§3) Two experimental mice were injected with epithelial cancer cells preincubated with 20 micrograms of Chlorin e6. […] Another two mice were injected with 100-150 micrograms of Chlorin e6 intratumorally and then exposed to 660 nm light (30 microwatts per cm^2) for 72 hours.

[2] = test system: transplanted human tumors; assay: Low fluence PDT of established transplanted human tumors in nude mice; assay type: in vivo; conditions: for tumor necrosis: 660 nm light 30 microwatts per cm^2 for 72 hours, after 7 days
Method: as §1, §2, §3
Five experimental mice bearing established tumors were injected with 1 mg Hpd intraperitoneally followed by exposure to 630 nm (peak) light ([…]) for 72 hours. […] There was no effect observed on control animals maintained in the absence of light (dark control mice).

[3] = test system: colon carcinoma tumor mass; assay: Photodynamic therapy of a solid tumor in a patient with implanted LED light source probes; assay type: in vivo, human
Excerpt: A patient in the terminal phase of recurrent malignant colon cancer having undergone chemotherapy and irradiation therapy, presented with a protruding colon carcinoma tumor mass of approximately 500 grams and approximately 13 cm in diameter, which extended through the patient's dermis. Due to the advanced state of the patient's disease and due to the highly vascularized nature of this tumor mass, resection was not feasible. Further, this large tumor mass presented a significant amount of pain and discomfort to the patient, as well as greatly impairing the patient's ability to lie flat.
Six separate light source probes, each including a linear array of LEDs, were surgically implanted in this large human tumor using standard surgical procedures. A single dose of a photosensitizer agent (aminolevulinic acid (ALA) at 60 mg/kg) was provided by oral administration to the patient. Following a period of five hours to permit sufficient clearance of the photosensitizing agent from healthy tissues, light irradiation was administered. An intensity of about 25-30 mW of light from each light source probe (650 nm peak wavelength) was delivered to the tumor for 40 hours. […] The total fluence delivered to the tumor bed during this single extended duration treatment was in excess of 20,000 Joules.
The fluence rate employed in this Example represented about 150-180 mW/cm^2, with a total fluence more than 20,000 Joules.

Compound: benzoporphyrin derivatives [BPD]
- effect on T cell membrane after exposure to light (virus-infected T cells): holes developed in the T cell membrane and increased in size until the membrane completely decomposed

Compound: sodium porfimer [PHOTOPHRIN]
- duration of dermal photosensitivity (normal skin tissue): up to six weeks

Compound: CCOC(=O)C1=Cc2c3nc(cc4nc(cc5[n-]c(cc6[n-]c2c(C)c6CC)c(C)c5CC)C(C)=C4CC)[C@@H](C)[C@]13CC.[Cl-].[Cl-].[Sn] (racemic) [PURLYTIN]
- duration of dermal photosensitivity (normal skin tissue): at least several weeks

Compound: CC(=O)[O-].CC(=O)[O-].CCc1c(CC)c2cc3nc(cnc4cc(OCCOCCOCCOC)c(OCCOCCOCCOC)cc4ncc4nc(cc1[n-]2)C(CCCO)=C4C)C(C)=C3CCCO.O.[Lu+3] [Lutrin, lutetium texaphyrin]
- time tumor tissues retain the agent ([1]; from time of administration): 48 to 96 h and 24 to 96 h
- time at which a larger proportion clears from normal tissue ([1]; in vivo): about 8 hours
- time at which a proportion begins to clear from normal tissue ([1]; in vivo): about 3 hours
- time at which an even greater proportion clears from normal tissue ([1]; in vivo): about 16 hours

Compound: Oc1cccc(-c2c3nc(c(-c4cccc(O)c4)c4ccc([nH]4)c(-c4cccc(O)c4)c4nc(c(-c5cccc(O)c5)c5ccc2[nH]5)CC4)C=C3)c1 [FOSCAN]
- duration of dermal photosensitivity (normal skin tissue): at least several weeks

Compound: C=Cc1c(C)c2cc3nc(c(CC(=O)O)c4[nH]c(cc5nc(cc1[nH]2)C(C)=C5CC)c(C)c4C(=O)O)[C@@H](CCC(=O)O)[C@@H]3C [Chlorin e6]
- tumor growth (epithelial cancer cells; cells preincubated with 20 micrograms): no tumor growth
- tumor growth, dark control (epithelial cancer cells; cells preincubated with 20 micrograms, no light): developed a large tumor
- tumor necrosis ([2]; 100-150 micrograms intratumorally): Extensive tumor necrosis

Compound: Pheophorbide A
- tumor growth (epithelial cancer cells; cells preincubated with 10 micrograms): no tumor growth
- tumor growth, dark controls (epithelial cancer cells; cells preincubated with 10 micrograms, maintained in the absence of light): developed a large tumor
- tumor necrosis ([2]; 50-100 micrograms into the lesion): Extensive tumor necrosis
- effect on tumor, dark control animals ([2]; 50-100 micrograms into the lesion, no light): no effect

Compound: NCC(=O)CCC(=O)O [ALA, aminolevulinic acid]
- reduction of tumor tissue (necrotic tissue debrided) ([3]; over four weeks following PDT): approximately 500 grams
- radius of extensive tumor necrosis from each of the light source probes ([3]; patient, ALA 60 mg/kg oral, 650 nm light, after 40 hours of PDT, total fluence > 20,000 Joules): greater than 5 cm
- collateral damage to surrounding normal tissue ([3]; patient, ALA 60 mg/kg oral, after 40 hours of PDT): no collateral damage
